Results taken from patent publication US8895599B2, “Lipoprotein lipase-activating compositions comprising benzene derivates” (Otsuka Pharmaceutical Factory, Inc., priority 2008, dated 2014).

Tested on: LPL
Assay: Test for LPL activity-increasing effect in normal rats (skeletal muscle LPL activity)
Type: in vivo
Settings: every day for 1 week, SD rats, soleus muscle, 4 h after administration
Procedure: Test for LPL Activity-Increasing Effect in Normal Rats
6-week-old SD rats (purchased from Charles River Japan) were used as subjects. The rats were divided into groups according to body weight at the age of 5 weeks. The rats in each test group were orally administered with a 5% gum arabic suspension in an amount of 5 ml/kg of body weight, the suspension containing the test compound of the invention in such an amount that the dose of the compound of the invention became 30 mg/kg of body weight in one group and 100 mg/kg of body weight in another group. The rats in a control group were orally administered with a 5% gum arabic suspension (not containing the test compound of the invention) in an amount of 5 ml/kg of body weight. Each sample suspension was orally administered every day at a specific time of day for 1 week starting when the rats reached the age of 6 weeks.
Four hours after the administration of the sample suspension, skeletal muscle tissues of the rats were collected, then freeze-clamped and stored under liquid nitrogen. LPL activity in the skeletal muscle tissues was measured by the following method.
The soleus muscle was homogenized in a chilled solution of 0.05 mol/L NH4OH—NH4Cl buffer (pH 8.5) containing 0.5 U/mL heparin at 1 mL/100 mg of tissue wet weight. After standing on ice for 60 min with vigorous mixing at intervals of 15 min, the homogenate was centrifuged at 3000 rpm and 4° C. for 10 min and the supernatant was separated.
The substrate solution was prepared by mixing 2 μCi of glycerol tri[1-^14C]oleate, 0.133 g of unlabeled triolein, 0.9 mL of 1% Triton X-100, and 0.9 mL of 4% bovine serum albumin. in 0.2 mol/L Tris-HCl buffer (pH 8.6) and 10.2 mL of 0.2 mol/L Tris-HCl buffer (pH 8.6). The mixture was emulsified by sonication on ice for 3 min.
In a glass test tube, 0.1 mL of the tissue extract, 0.05 mL of heat-inactivated rat serum and 0.15 mL of 4% bovine serum albumin in 0.2 mol/L Tris-HCl buffer (pH 7.4) were mixed. Enzyme reaction was started by adding 0.2 mL of the substrate solution and was carried out for 30 min. at 37° C.
The reaction was stopped by addition of 2 mL of 1.5 mol/L H2SO4/2-propanol (1:40, v/v), and 1 mL of distilled water and 3 mL of hexane were added into the test tube. After vigorously shaking for 10 min. at room temperature, the test tube was centrifuged for 10 min. at 3000 rpm.
The upper layer (3.5 mL) was collected in a new test tube and mixed with 1 mL of 0.1 mol/L KOH.
The test tube was vigorously shaken for 10 min. at room temperature and then centrifuged for 10 min. at 3000 rpm.
After removing the upper layer, 1 mL of the lower layer (water phase) was transferred into a vial for counting, neutralized with 50 μL of 1.3 mol/L HCl and mixed with 4 mL of scintillator. The radioactivity was measured using a liquid scintillation counter.
The LPL activity increase (%) was calculated from the measured values of LPL activity in the control group and test groups according to the following formula: LPL activity increase (%)=(Test group average value)/(Control group average value)×100−100

Compound: COc1cc(-c2cn3ccccc3n2)ccc1OCc1ccc(Cl)cc1 [Example 10]
- Increase of skeletal muscle LPL activity compared to control (%) (30 mg/kg oral): 22%
- Increase of skeletal muscle LPL activity compared to control (%) (100 mg/kg oral): 55%
